Data published in US5756532A, “Aminomethyl-2 3 8 9-tetrahydro-7H-1 4-dioxino[2 3-E]-indol-8-ones and derivatives” (American Home Products Corporation, priority 1996, dated 1998).

target: T1, dopamine D2 receptor (Rattus norvegicus, UniProt P61169); assay: Affinity for the dopamine D2 receptor (3H-quinpirole, rat striatal brain tissue homogenate); assay type: binding; settings: homogenized rat striatal brain tissue
T1 construct: homogenized rat striatal brain tissue; from tissue; host or cells: rat striatum (homogenate)
Description: Affinity for the dopamine D2 receptor was established by a modification of the standard experimental test procedure of Seemen and Schaus, European Journal of Pharmacology 203: 105-109, 1991, wherein homogenized rat striatal brain tissue is incubated with ^3 H-quinpirole and various concentrations of test compound, filtered and washed and counted in a Betaplate scintillation counter.

T1 sequence (P61169 whole entry): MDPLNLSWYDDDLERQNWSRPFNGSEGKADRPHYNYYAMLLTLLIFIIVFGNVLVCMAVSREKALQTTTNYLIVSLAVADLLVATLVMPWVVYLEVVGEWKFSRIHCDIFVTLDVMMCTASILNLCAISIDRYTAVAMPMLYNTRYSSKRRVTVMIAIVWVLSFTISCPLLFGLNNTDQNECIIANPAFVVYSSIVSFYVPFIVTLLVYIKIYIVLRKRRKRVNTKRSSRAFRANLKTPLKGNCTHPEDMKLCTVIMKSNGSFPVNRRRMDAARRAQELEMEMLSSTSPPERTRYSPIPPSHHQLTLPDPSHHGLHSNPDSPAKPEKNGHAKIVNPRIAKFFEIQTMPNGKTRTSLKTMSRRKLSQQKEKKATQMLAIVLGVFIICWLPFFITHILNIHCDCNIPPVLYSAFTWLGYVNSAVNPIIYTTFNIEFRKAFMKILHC

In order of falling IC50:
1. Cc1ccc(C=C2C(=O)Nc3c(F)cc4c(c32)O[C@@H](CNCc2ccc(C)cc2)CO4)cc1 [Example 35, 6-Fluoro-2-[(4-methyl-benzylamino)-methyl]-9-(4-methyl-benzylidene)-2,3.8.9-tetrahydro-7H-1,4-dioxino[2,3-e]indol-8-one]  52.1 nM
2. O=C1Nc2ccc3c(c2C1=Cc1ccc(F)cc1)O[C@@H](CNCc1ccc(F)cc1)CO3 [Example 22]  17.7 nM
3. O=C1CCc2c(ccc3c2O[C@@H](CNCc2ccccc2)CO3)N1 [Example 6, 2-(Benzylamino-methyl)-2,3,9,10-tetrahydro-7H-1,4-dioxino[2,3-f]quinolin-8-one]  12.3 nM
4. NC[C@H]1COc2ccc3c(c2O1)CC(=O)N3 [Example 8, 2-Aminomethyl-2,3,8,9-tetrahydro-7H-1,4-dioxino[2,3-e]indol-8-one]  9.93 nM
5. O=C1Cc2c(ccc3c2O[C@H](CNCc2ccccc2)CO3)N1 [Example 15, 2-(Benzylamino-methyl)-2,3,8,9-tetrahydro-7H-4-dioxino[2,3-e]indol-8-one]  3.33 nM
6. Cc1cc2c(c3c1NC(=O)C3)O[C@@H](CNCc1cccs1)CO2 [Example 29, 2-{[(Thiophene-2-ylmethyl)-amino]-methyl}-6-methyl-2,3,8,9-tetrahydro-7H-1,4-dioxino[2,3-e]indol-8-one]  3.3 nM
7. O=C1Cc2c(ccc3c2O[C@@H](CNCCc2cccnc2)CO3)N1 [Example 10, 2-[(2-Pyridin-3yl-ethylamino)-methyl]-2,3,8,9-tetrahydro-7H-1,4-dioxino-[2,3-e]indol-8one]  3.06 nM
8. O=C1Nc2ccc3c(c2C1=Cc1ccccc1)O[C@@H](CNCc1ccccc1)CO3 [Example 2, 2-(Benzylamino-methyl)-1-benzylidene-2,3,8,9-tetrahydro-7H-1,4-dioxino[2,3-e]indol-8-one]  2.8 nM
9. Cc1cc2c(c3c1NC(=O)C3)O[C@@H](CNCc1ccc(F)cc1)CO2 [Example 32]  2.15 nM
10. O=C1Cc2c(ccc3c2O[C@@H](CNCCc2c[nH]c4ccccc24)CO3)N1 [Example 4]  1.79 nM
11. Cc1ccc(CNC[C@H]2COc3cc(Cl)c4c(c3O2)CC(=O)N4)cc1 [Example 44, 6-Chloro-2-[(4-methyl-benzylamino)-methyl]-2,3,8,9-tetrahydro-7H-1,4-dioxino[2,3-e]indol-8-one]  1.43 nM
12. O=C1Cc2c(ccc3c2O[C@@H](CNCCCO)CO3)N1 [Example 5, 2-[(3-Hydroxy-propylamino)-methyl]-2,3,8,9-tetrahydro-7H-1,4-dioxino[2,3-e]indol-8-one]  1.42 nM
13. Cc1ccc(CNC[C@H]2COc3cc(C)c4c(c3O2)CC(=O)N4)cc1 [Example 28, 2-[(4-Methyl-benzylamino)-methyl]-6-methyl-2,3,8,9-tetrahydro-7H-1,4-dioxino[2,3-e]indol-8-one]  1.39 nM
14. O=C1Cc2c(ccc3c2O[C@@H](CNCCCOc2ccc4cccnc4c2)CO3)N1 [Example 13]  1.39 nM
15. CN(C)c1cccc(OCCCNC[C@H]2COc3ccc4c(c3O2)CC(=O)N4)c1 [Example 11]  1.3 nM
16. Cc1cc2c(c3c1NC(=O)C3)O[C@@H](CNCc1ccccc1)CO2 [Example 31, 2-(Benzylamino-methyl)-6-methyl-2,3,8,9-tetrahydro-7H-1,4-dioxino[2,3-e]indol-8-one]  1.3 nM
17. O=C1Cc2c(c(F)cc3c2O[C@@H](CNCC24CC5CC(CC(C5)C2)C4)CO3)N1 [Example 38, 2-{[(Adamantan-1-ylmethyl)-amino]-methyl}-6-fluoro-2,3,8,9-tetrahydro-7H-1,4-dioxino[2,3-e]indol-8-one]  1.08 nM
18. O=C1Cc2c(ccc3c2O[C@@H](CNCc2cccc(C(F)(F)F)c2)CO3)N1 [Example 25, 2-[(3-Trifluoromethyl-benzylamino)-methyl]-2,3,8,9-tetrahydro-7H-1,4-dioxino [2,3-e]indol-8-one]  1.04 nM
19. O=C1Cc2c(c(Cl)cc3c2O[C@@H](CNCc2ccc(F)cc2)CO3)N1 [Example 46, 6-Chloro-2-[(4-fluoro-benzylaimino)-methyl]-2,3,8,9-tetrahydro-7H-1,4-dioxino[2,3-e_]indol-8-one]  1 nM
20. O=C1Cc2c(c(Cl)cc3c2O[C@@H](CNCc2ccc(Cl)cc2)CO3)N1 [Example 43, 6-Chloro-2-[(4-chloro-benzylamino)-methyl]-2,3,8,9-tetrahydro-7H-1,4-dioxino[2,3-e]indol-8-one]  0.98 nM
21. O=C1Cc2c(c(Cl)cc3c2O[C@@H](CNCc2ccccc2)CO3)N1 [Example 45, 2-(Benzylamino)-methyl-6-chloro-2,3,8,9-tetrahydro-7H-1,4-dioxino[2,3-e]indol-8-one]  0.97 nM
22. CC(=O)Nc1cccc(OCCCNC[C@H]2COc3ccc4c(c3O2)CC(=O)N4)c1 [Example 23, N-(3-{3-[(8-Oxo-2,3,8,9-tetrahydro-7H-1,4-dioxinor[2,3-e]indol-2-ylmethyl)-amino]-propoxy}-phenyl)-acetamide]  0.89 nM
23. O=C1Cc2c(c(F)cc3c2O[C@@H](CNCCCc2c[nH]c4ccccc24)CO3)N1 [Example 39, 6-Fluoro-2-{[3-(1H-indol-3-yl)-propylamino]-methyl}-2,3,8,9-tetrahydro-7H-1,4-dioxino[2,3-e]indol-8-one]  0.78 nM
24. COc1ccc(CNC[C@H]2COc3ccc4c(c3O2)CC(=O)N4)cc1 [Example 17, 2-[(4-Methoxy-benzylamino)-methyl]-2,3,8,9-tetrahydro-7H-1,4-dioxino[2,3-e]indol-8-one]  0.68 nM
25. O=C1Cc2c(c(F)cc3c2O[C@@H](CNCCCCc2ccccc2)CO3)N1 [Example 42, 6-Fluoro-2-[(4-phenyl-butylamino)-methyl]-2,3,8,9-tetrahydro-7H-1,4-dioxino[2,3-e]indol-8-one]  0.67 nM
26. O=C1Cc2c(c(F)cc3c2O[C@@H](CNCc2ccccc2)CO3)N1 [Example 33, 2-(Benzylamino-methyl)-6-fluoro-2,3,8,9-tetrahydro-7H-1,4-dioxino[2,3-e]indol-8-one]  0.57 nM
27. O=C1Cc2c(c(F)cc3c2O[C@@H](CNCc2ccc(C(F)(F)F)cc2)CO3)N1 [Example 41, 6-Fluoro-2-[(4-trifluoromethyl-benzylamino)-methyl]-2,3,8,9-tetrahydro-7H-dioxino[2,3-e]indol-8-one]  0.56 nM
28. O=C1Cc2c(c(F)cc3c2O[C@@H](CNCc2ccc(F)cc2)CO3)N1 [Example 34, 6-Fluoro-2-[(4-fluoro-benzylamino)-methyl]-2,3,8,9-tetrahydro-7H-1,4-dioxino[2,3-e]indol-8-one]  0.56 nM
29. O=C1Cc2c(c(F)cc3c2O[C@@H](CNCc2ccc(Cl)cc2)CO3)N1 [Example 40, 2-[(4-Chloro-benzylamino)-methyl]-6-fluoro-2,3,8,9-tetrahydro-7H-1,4-dioxino[2,3-e]indol-8-one]  0.53 nM
30. O=C1Nc2ccc3c(c2C1=O)O[C@@H](CNCc1ccccc1)CO3 [Example 26]  0.52 nM
31. CN(C)c1cccc(OCCCNC[C@H]2COc3cc(F)c4c(c3O2)CC(=O)N4)c1 [Example 37, 2-{[3-(3-Dimethylamino-phenoxy)-propylamino]-methyl}-6-fluoro-2,3,8,9-tetrahydro-7H-1,4-dioxino[2,3-e]indol-8-one]  0.51 nM
32. O=C1Cc2c(ccc3c2O[C@@H](CNCc2cccc4ccccc24)CO3)N1 [Example 18, 2-(Napthalen-1-yl-methylamino-methyl)-2,3,8,9-tetrahydro-7H-1,4-dioxono[2,3-e]indol-8-one]  0.49 nM
33. CCCCCNC[C@H]1COc2ccc3c(c2O1)CC(=O)N3 [Example 16, 2-(Pentylaminomethyl)-2,3,8,9-tetrahydro-7H-1,4-dioxino[2,3-e]indol-8-one]  0.45 nM
34. O=C1Cc2c(ccc3c2O[C@@H](CNCC24CC5CC(CC(C5)C2)C4)CO3)N1 [Example 14]  0.43 nM
35. O=C1Cc2c(ccc3c2O[C@@H](CNCC2CCCCC2)CO3)N1 [Example 9, 2-(Cyclohexylmethylamino-methyl)-2,3,8,9-tetrahydro-7H-1,4-dioxino[2,3-e]indol-8-one]  0.37 nM
36. Cc1ccc(CNC[C@H]2COc3cc(F)c4c(c3O2)CC(=O)N4)cc1 [Example 36, 6-Fluoro-2-[(4-methyl-benzylamino)-methyl]-2,3,8,9-tetrahydro-7H-1,4-dioxino[2,3-e]indol-8-one]  0.35 nM
37. O=C1Cc2c(ccc3c2O[C@@H](CNCc2ccc(C(F)(F)F)cc2)CO3)N1 [Example 19, 2-(4-Trifluoromethyl-benzylamino-methyl)-2,3,8,9-tetrahydro-7H-1,4-dioxino [2,3-e]indol-8-one]  0.34 nM
38. O=C1Cc2c(ccc3c2O[C@@H](CNCCCCc2ccccc2)CO3)N1 [Example 21, 2-(4-Phenyl-butylamino)-methyl-2,3,8,9-tetrahydro-7H-1,4-dioxino[2,3-e]indol-8-one]  0.33 nM
39. O=C1Cc2c(ccc3c2O[C@@H](CNCc2ccc(F)cc2)CO3)N1 [Example 20, 2-(4-Fluoro-benzylamino)-methyl-2,3,8,9-tetrahydro-7H-1,4-dioxino[2,3-e]-indol-8-one]  0.29 nM
40. O=C1Cc2c(ccc3c2O[C@@H](CNCCCc2c[nH]c4ccccc24)CO3)N1 [Example 3, 2-{[3-(Indol-3-yl)-propylamino]-methyl}-2,3,8,9-tetrahydro-7H-1,4-dioxino-[2,3-e]indol-8-one]  0.14 nM

system: mouse locomotor activity; assay: Reduction of mouse locomotor activity (hypolocomotion); assay type: in vivo, mouse (male, CF-1); settings: 20 min, sc, horizontal activity counts collected 10 to 20 minutes after dosing
Description: The antipsychotic activity of the compounds of the invention was further established by a determination of the compounds' ability to reduce mouse locomotor activity according to the method of Martin and Bendensky, J. Pharmacol. Exp. Therap. 229: 706-711, 1984, in which mice (male, CF-1, Charles River, 20-30 g) were injected with vehicle or various doses of each drug and locomotor activity was measured for 30 minutes using automated infrared activity monitors (Omnitech-8×8 inch open field) located in a darkened room. ED50 's were calculated from the horizontal activity counts collected from 10 to 20 minutes after dosing using a nonlinear regression analysis with inverse prediction.

In order of falling ED50:
1. O=C1Cc2c(ccc3c2O[C@H](CNCc2ccccc2)CO3)N1 [Example 15, 2-(Benzylamino-methyl)-2,3,8,9-tetrahydro-7H-4-dioxino[2,3-e]indol-8-one]  0.09 mg/kg
2. O=C1Cc2c(c(F)cc3c2O[C@@H](CNCCCc2c[nH]c4ccccc24)CO3)N1 [Example 39, 6-Fluoro-2-{[3-(1H-indol-3-yl)-propylamino]-methyl}-2,3,8,9-tetrahydro-7H-1,4-dioxino[2,3-e]indol-8-one]  0.064 mg/kg
3. O=C1Cc2c(ccc3c2O[C@@H](CNCCCc2c[nH]c4ccccc24)CO3)N1 [Example 3, 2-{[3-(Indol-3-yl)-propylamino]-methyl}-2,3,8,9-tetrahydro-7H-1,4-dioxino-[2,3-e]indol-8-one]  0.039 mg/kg
4. COc1ccc(CNC[C@H]2COc3ccc4c(c3O2)CC(=O)N4)cc1 [Example 17, 2-[(4-Methoxy-benzylamino)-methyl]-2,3,8,9-tetrahydro-7H-1,4-dioxino[2,3-e]indol-8-one]  0.027 mg/kg
5. Cc1ccc(CNC[C@H]2COc3cc(C)c4c(c3O2)CC(=O)N4)cc1 [Example 28, 2-[(4-Methyl-benzylamino)-methyl]-6-methyl-2,3,8,9-tetrahydro-7H-1,4-dioxino[2,3-e]indol-8-one]  0.024 mg/kg
6. CN(C)c1cccc(OCCCNC[C@H]2COc3ccc4c(c3O2)CC(=O)N4)c1 [Example 11]  0.0138 mg/kg
7. O=C1Cc2c(ccc3c2O[C@@H](CNCC24CC5CC(CC(C5)C2)C4)CO3)N1 [Example 14]  0.008 mg/kg
